Patent publication US6620593B1, “Method for safety evaluation of chemical compound using recombinant yeast expressing human cytochrome P450” (Sumitomo Chemical Company, Limited, priority 1993, dated 2003)
Where two headings read alike, the source gives them in different places.

What was measured:
[1] = system: mixed microsomal fractions of yeasts expressing human cytochrome P450 (3A4, 2C9, 2C8, 2C18, 2C19, 1A2, 2E1, 1A1, 2B6, 2D6); test: Metabolism of debrisoquine using mixture of microsomal fractions of transformed yeast cells; assay type: in vitro ADME; conditions: 37° C., 30 min; HPLC
Procedure: The mixing molar ratio of the human cytochrome P450 molecular species were as follows: [table] […] After the mixture was incubated at 37° C. for 30 min, 50 μl of 60% perchlorate was added to the solution to stop the reaction.

human P450 2B6 = biological target: T1, human P450 2B6 (Homo sapiens, UniProt P20813); test: Metabolism (hydroxylation) of substrates using transformed yeast cells or microsomal fractions expressing human P450 2B6
T1 sequence (P20813 1-491): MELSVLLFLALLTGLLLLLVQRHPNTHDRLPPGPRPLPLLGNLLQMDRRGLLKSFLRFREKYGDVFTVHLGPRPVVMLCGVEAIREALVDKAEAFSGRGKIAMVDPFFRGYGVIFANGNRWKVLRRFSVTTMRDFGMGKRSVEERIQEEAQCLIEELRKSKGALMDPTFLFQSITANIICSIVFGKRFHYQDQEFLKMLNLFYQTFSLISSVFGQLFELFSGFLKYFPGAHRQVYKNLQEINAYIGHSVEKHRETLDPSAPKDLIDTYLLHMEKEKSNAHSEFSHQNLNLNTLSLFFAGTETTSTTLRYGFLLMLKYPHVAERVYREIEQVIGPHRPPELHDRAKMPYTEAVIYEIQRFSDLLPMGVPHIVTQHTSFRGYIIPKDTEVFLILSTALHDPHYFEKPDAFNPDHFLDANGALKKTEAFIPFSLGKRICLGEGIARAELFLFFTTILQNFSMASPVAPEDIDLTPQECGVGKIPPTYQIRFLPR
Procedure: (§1) Then 2 ml of dichloromethane was added.

human P450 2A6 = test: Metabolism (hydroxylation) of substrates using transformed yeast cells or microsomal fractions expressing human P450 2A6
Procedure: as §1

human P450 2C19 = human P450 2C19 (Homo sapiens, UniProt P33261); test: Metabolism (hydroxylation) of substrates using transformed yeast cells or microsomal fractions expressing human P450 2C19
Procedure: as §1

human P450 3A4 = test: Metabolism (hydroxylation) of substrates using transformed yeast cells or microsomal fractions expressing human P450 3A4
Procedure: as §1

human P450 2C8 = test: Metabolism (hydroxylation) of substrates using transformed yeast cells or microsomal fractions expressing human P450 2C8
Procedure: as §1

human P450 2D6 = test: Metabolism (hydroxylation) of substrates using transformed yeast cells or microsomal fractions expressing human P450 2D6
Procedure: as §1

human P450 1A2 = biological target: T2, human P450 1A2 (Homo sapiens, UniProt P05177); test: Metabolism (hydroxylation) of substrates using transformed yeast cells or their microsomal fractions expressing human P450 1A2 and yeast NADPH-P450 reductase
T2 sequence (P05177 1-516): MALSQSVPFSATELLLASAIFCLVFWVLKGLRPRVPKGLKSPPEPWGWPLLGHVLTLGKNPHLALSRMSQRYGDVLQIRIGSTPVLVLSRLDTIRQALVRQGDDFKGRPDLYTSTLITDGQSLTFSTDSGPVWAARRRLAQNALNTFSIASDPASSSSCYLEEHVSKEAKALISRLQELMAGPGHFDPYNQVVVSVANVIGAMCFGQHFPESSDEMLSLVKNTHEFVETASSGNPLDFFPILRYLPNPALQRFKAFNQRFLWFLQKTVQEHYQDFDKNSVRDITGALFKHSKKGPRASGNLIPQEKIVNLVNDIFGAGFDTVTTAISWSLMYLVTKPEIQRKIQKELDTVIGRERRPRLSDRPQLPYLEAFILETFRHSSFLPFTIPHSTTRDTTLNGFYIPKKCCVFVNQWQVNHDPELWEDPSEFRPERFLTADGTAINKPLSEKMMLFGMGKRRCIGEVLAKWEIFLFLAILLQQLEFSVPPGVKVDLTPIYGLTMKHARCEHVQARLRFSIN
Procedure: as §1

human P450 2E1 = human P450 2E1 (Homo sapiens, UniProt P05181); test: Metabolism (hydroxylation) of substrates using transformed yeast cells or microsomal fractions expressing human P450 2E1
Procedure: as §1

[2] = system: other human P450 molecular species
human P450 1A1 [3] = biological target: T3, human P450 1A1 (Homo sapiens, UniProt P04798); conditions: microsomes
T3 sequence (P04798 1-512): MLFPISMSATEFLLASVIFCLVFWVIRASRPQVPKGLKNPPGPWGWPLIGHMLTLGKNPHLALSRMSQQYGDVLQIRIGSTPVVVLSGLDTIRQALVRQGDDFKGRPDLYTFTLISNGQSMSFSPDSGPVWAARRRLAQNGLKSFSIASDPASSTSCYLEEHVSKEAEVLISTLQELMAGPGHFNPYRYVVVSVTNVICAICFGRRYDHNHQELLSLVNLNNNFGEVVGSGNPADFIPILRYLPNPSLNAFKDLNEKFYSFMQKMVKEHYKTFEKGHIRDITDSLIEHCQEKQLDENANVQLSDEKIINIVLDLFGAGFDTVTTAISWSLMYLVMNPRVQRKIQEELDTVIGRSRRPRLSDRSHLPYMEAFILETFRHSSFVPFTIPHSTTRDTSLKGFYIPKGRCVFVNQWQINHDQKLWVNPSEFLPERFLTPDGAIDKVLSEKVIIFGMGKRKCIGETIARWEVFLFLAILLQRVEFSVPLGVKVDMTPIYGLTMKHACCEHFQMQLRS

human P450 2C18 = biological target: T4, human P450 2C18 (Homo sapiens, UniProt P33260); test: Metabolism (hydroxylation) of substrates using transformed yeast cells or microsomal fractions expressing human P450 2C18
T4 sequence (P33260 26-490): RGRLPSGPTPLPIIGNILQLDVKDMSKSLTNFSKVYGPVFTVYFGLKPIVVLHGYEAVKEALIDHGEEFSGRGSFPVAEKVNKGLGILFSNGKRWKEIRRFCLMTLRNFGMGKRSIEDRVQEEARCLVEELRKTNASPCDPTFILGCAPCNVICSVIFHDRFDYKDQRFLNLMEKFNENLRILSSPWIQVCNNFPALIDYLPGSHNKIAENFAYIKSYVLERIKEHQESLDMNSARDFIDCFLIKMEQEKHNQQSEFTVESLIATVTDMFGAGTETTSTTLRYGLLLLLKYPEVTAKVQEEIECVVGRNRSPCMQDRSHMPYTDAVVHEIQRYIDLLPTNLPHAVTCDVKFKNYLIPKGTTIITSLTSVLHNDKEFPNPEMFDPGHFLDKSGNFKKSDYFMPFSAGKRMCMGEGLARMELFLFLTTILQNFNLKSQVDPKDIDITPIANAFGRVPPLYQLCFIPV
Procedure: as §1

human P450 2C9 = human P450 2C9 (Homo sapiens, UniProt P11712); test: Metabolism (hydroxylation) of substrates using transformed yeast cells or microsomal fractions expressing human P450 2C9
Procedure: as §1

[4] = system: mixed system B (eleven human P450 molecular species); test: Metabolism of S-mephenytoin using mixture of microsomal fractions of transformed yeast cells (mixing system B); assay type: in vitro ADME; conditions: 37° C., 30 min; HPLC
Procedure: The mixing ratio of the human cytochrome P450 molecular species was the same as that of the mixing system B as described above. […] After the mixture was incubated at 37° C. for 30 min, 250 μl of methanol was added to the solution to stop the reaction.

human P450 1A1 [5] = biological target: T3, human P450 1A1; test: Metabolism (hydroxylation) of substrates using transformed yeast cells or microsomal fractions expressing human P450 1A1; conditions: Table 1; recombinant yeast cells or microsomal fractions; conditions per substrate
[6] = system: other human P450 molecular species; test: Metabolism of substrates using yeast cells or microsomal fractions expressing the other human P450 molecular species (those not given); conditions: the remaining of the eleven human P450 species
[7] = Table 1, recombinant yeast cells or microsomal fractions, conditions per substrate

Sequence of human P450 2E1 (P05181 whole entry): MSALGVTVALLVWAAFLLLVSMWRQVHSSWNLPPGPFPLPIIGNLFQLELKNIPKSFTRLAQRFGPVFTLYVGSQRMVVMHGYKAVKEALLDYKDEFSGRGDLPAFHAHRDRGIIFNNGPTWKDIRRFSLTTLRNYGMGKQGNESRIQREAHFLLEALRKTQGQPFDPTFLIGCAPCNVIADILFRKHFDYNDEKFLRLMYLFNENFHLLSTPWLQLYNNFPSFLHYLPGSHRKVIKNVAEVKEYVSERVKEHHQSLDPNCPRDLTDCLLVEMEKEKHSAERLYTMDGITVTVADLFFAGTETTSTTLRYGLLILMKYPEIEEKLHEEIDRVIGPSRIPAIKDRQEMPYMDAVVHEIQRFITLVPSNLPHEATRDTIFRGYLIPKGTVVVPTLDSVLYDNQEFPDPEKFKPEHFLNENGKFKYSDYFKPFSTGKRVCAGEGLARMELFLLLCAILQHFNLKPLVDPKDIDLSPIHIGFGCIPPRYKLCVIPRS
Sequence of human P450 2C9 (P11712 whole entry): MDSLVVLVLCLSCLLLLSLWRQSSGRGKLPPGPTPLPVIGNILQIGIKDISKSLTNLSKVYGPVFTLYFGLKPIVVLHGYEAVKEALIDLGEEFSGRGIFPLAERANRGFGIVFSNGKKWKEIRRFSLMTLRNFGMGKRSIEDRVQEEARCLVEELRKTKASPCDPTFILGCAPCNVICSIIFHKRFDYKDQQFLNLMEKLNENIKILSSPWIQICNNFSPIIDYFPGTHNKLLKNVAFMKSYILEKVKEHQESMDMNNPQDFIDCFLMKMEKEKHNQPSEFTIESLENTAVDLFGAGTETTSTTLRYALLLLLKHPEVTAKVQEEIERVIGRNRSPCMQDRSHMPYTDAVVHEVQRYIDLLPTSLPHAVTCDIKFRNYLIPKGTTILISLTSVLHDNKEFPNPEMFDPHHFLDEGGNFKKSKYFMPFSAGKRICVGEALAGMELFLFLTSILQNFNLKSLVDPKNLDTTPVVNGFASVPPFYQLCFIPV
Sequence of human P450 2C19 (P33261 whole entry): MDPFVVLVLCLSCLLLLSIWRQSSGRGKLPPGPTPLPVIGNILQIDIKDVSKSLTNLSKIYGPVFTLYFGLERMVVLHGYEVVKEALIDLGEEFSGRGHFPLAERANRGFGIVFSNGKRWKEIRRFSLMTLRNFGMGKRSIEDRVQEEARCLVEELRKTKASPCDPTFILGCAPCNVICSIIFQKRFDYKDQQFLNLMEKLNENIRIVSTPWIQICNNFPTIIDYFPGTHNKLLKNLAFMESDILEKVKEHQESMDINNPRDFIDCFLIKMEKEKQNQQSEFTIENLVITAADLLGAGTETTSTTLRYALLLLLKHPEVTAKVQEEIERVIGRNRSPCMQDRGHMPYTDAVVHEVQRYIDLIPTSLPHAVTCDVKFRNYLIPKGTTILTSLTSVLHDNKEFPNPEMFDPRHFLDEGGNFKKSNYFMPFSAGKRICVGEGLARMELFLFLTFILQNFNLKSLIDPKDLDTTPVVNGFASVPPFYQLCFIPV

Structure (SMILES)	Hydroxylation activity, human P450 2A6 (human P450 2A6; microsomes)	Hydroxylation activity, human P450 3A4 (human P450 3A4; microsomes)	Hydroxylation activity, human P450 2C8 (human P450 2C8; microsomes)	Hydroxylation activity, human P450 2D6 (human P450 2D6; microsomes)	Hydroxylated metabolite / hydroxylation activity with yeast expressing other human P450 than those named [2]	Hydroxylation activity, human P450 2B6 (human P450 2B6; [7])	Hydroxylation activity, human P450 1A2 (human P450 1A2; [7])	Hydroxylation activity, human P450 2E1 (human P450 2E1; [7])	Hydroxylation activity, human P450 2C18 (human P450 2C18; [7])	Hydroxylation activity, human P450 1A1 (human P450 1A1 [5])	other results
N=C(N)N1CCc2ccccc2C1 [Debrisoquine]	−	−	−	+ + +	no activity						Metabolites compared with those reported for human liver microsome (Kronbach) [1]: well coincided; Hydroxylation activity, human P450 2B6 (human P450 2B6; microsomes): −; Hydroxylation activity, human P450 2C19 (human P450 2C19; microsomes): −; Hydroxylation activity, human P450 1A2 (human P450 1A2; microsomes): −; Hydroxylation activity, human P450 2E1 (human P450 2E1; microsomes): −; Hydroxylation activity, human P450 1A1 (human P450 1A1 [3]): + +; Hydroxylation activity, human P450 2C18 (human P450 2C18; microsomes): −; Hydroxylation activity, human P450 2C9 (human P450 2C9; microsomes): −
CC[C@@]1(c2ccccc2)NC(=O)N(C)C1=O [S-Mephenytoin]	−	−	−	−	no activity	−	−	−	−	−	Metabolites compared with those reported for human liver microsome (Goldstein) [4]: well coincided; Hydroxylation activity, human P450 2C9 (human P450 2C9; [7]): −
C[C@]12CC[C@H]3[C@@H](CCC4=CC(=O)CC[C@@]43C)[C@@H]1CC[C@@H]2O [Testosterone]						−	−	−	−	+	Hydroxylation activity, human P450 2A6 (human P450 2A6; [7]): −; Hydroxylation activity, human P450 2C19 (human P450 2C19; [7]): −; Metabolising (hydroxylation / O-deethylation) activity in words, P450 3A4 (human P450 3A4; 7-ethoxycoumarin 0.5 mM, testosterone 0.05 mM, chlorzoxazone 0.5 mM or 250 μM, acetanilide 5 mM): detected; Hydroxylation activity, human P450 3A4 (human P450 3A4; [7]): + + +; Metabolising (hydroxylation / O-deethylation) activity in words, P450 2C8 (human P450 2C8; 7-ethoxycoumarin 0.5 mM, tolbutamide 1.0 mM, testosterone 0.05 mM, chlorzoxazone, acetanilide 5 mM): detected; Hydroxylation activity, human P450 2C8 (human P450 2C8; [7]): +; Hydroxylation activity, human P450 2D6 (human P450 2D6; [7]): −; Hydroxylated metabolite / hydroxylation activity with yeast expressing other human P450 than those named [6]: not detected
